Test results reported in patent US20070128217A1 (priority 2003, published 2007).

How the values were obtained:
[1] = system: rabbit serum obtained by immunizing a rabbit with the SARS-CoV strain Frankfurt 1; format: binding; set-up: Binding of a rabbit serum to linear peptides / Binding of a rabbit serum to looped peptides / Rabbit serum linear peptides / Rabbit serum looped peptides / Binding of a rabbit serum to linear peptides of protein N of SARS-CoV Urbani (Rabbit serum linear peptides) / Binding of a rabbit serum to looped/cyclic peptides of protein N of SARS-CoV Urbani (Rabbit serum looped peptides): unit not given here
[2] = system: control sera (pooled serum of ten healthy LUMC hospital workers; commercial negative donor pooled serum from the Dutch bloodbank); format: binding, human; set-up: Binding of Control serum LUMC to linear peptides / Binding of Control serum Blood-bank to linear peptides / Binding of Control serum LUMC to looped peptides / Binding of Control Serum Blood-Bank to Looped peptides / Binding of Control serum LUMC to linear peptides of the protein M of SARS-CoV Urbani / Binding of Control serum Blood-bank to linear peptides of the protein M of SARS-CoV Urbani / Binding of Control serum LUMC to looped peptides of the protein M of SARS-CoV Urbani / Binding of Control Serum Blood-Bank to Looped peptides of the protein M of SARS-CoV Urbani: unit not given here
[3] = system: antibodies in sera from SARS patients (sera 1a, 1b, 2, 6, 37, 62, London, SARS-yellow, SARS-green); format: binding, human; set-up: Binding of serum 6 to linear peptides of protein X1 of SARS-CoV Urbani / Binding of serum 37 to linear peptides of protein X1 of SARS-CoV Urbani / Binding of serum 6 to looped/cyclic peptide (PEPSCAN-ELISA) / Binding of serum 37 to looped/cyclic peptide (PEPSCAN-ELISA) / Binding of serum 37 to looped/cyclic peptides of protein X1 of SARS-CoV Urbani / Binding of serum 6 to linear peptides of protein X2 / Binding of serum 37 to linear peptides of protein X2 / Binding of serum 37 to looped/cyclic peptides of protein X2 of SARS-CoV Urbani / Binding of serum 6 to linear peptides of protein M of SARS-CoV Urbani / Binding of serum 37 to linear peptides of protein M of SARS-CoV Urbani / Binding of serum 6 to looped/cyclic peptides of protein M of SARS-CoV Urbani / Binding of serum 37 to looped/cyclic peptides of protein M of SARS-CoV Urbani / Binding of serum 6 to linear peptides of protein X3 of SARS-CoV Urbani / Binding of serum 37 to linear peptides of protein X3 of SARS-CoV Urbani / Binding of serum 37 to looped/cyclic peptides of protein X3 of SARS-CoV Urbani / Binding of serum 6 to linear peptides of protein X4 of SARS-CoV Urbani / Binding of serum 37 to linear peptides of protein X4 of SARS-CoV Urbani / Binding of serum 37 to looped/cyclic peptides of protein X4 of SARS-CoV Urbani / Binding of serum 6 to linear peptides of protein X5 of SARS-CoV Urbani / Binding of serum 37 to linear peptides of protein X5 of SARS-CoV Urbani / Binding of serum 37 to looped/cyclic peptides of protein X5 of SARS-CoV Urbani / Binding of serum 6 to linear peptides of protein N of SARS-CoV Urbani / Binding of serum 37 to linear peptides of protein N of SARS-CoV Urbani / Binding of serum 6 to linear peptide (PEPSCAN-ELISA) / Binding of serum 1a to looped/cyclic peptides of protein N of SARS-CoV Urbani / Binding of serum 1b to looped/cyclic peptides of protein N of SARS-CoV Urbani / Binding of serum 2 to looped/cyclic peptides of protein N of SARS-CoV Urbani / Binding of serum 6 to looped/cyclic peptides of protein N of SARS-CoV Urbani / Binding of serum 37 to looped/cyclic peptides of protein N of SARS-CoV Urbani / Binding of serum 62 to looped/cyclic peptides of protein N of SARS-CoV Urbani / Binding of serum London to looped/cyclic peptides of protein N of SARS-CoV Urbani / Binding of serum SARS-green to looped/cyclic peptides of protein N of SARS-CoV Urbani: unit not given here

TIPLQASLPFGWLVI
Binding of a rabbit serum to linear peptides [1]: 0.1
Binding of a rabbit serum to looped peptides [1]: 0.5
Binding of Control Serum Blood-Bank to Looped peptides [2]: 0.7
Binding of Control serum Blood-bank to linear peptides [2]: 0.8
Binding of Control serum LUMC to linear peptides [2]: 0.7
Binding of Control serum LUMC to looped peptides [2]: 0.7
Binding of serum 1a to linear peptides of protein X1 of SARS-CoV Urbani [3]: 0.8
Binding of serum 1a to looped/cyclic peptide (PEPSCAN-ELISA) [3]: 0.6
Binding of serum 1b to linear peptides of protein X1 of SARS-CoV Urbani [3]: 0.5
Binding of serum 1b to looped/cyclic peptide (PEPSCAN-ELISA) [3]: 0.4
Binding of serum 2 to linear peptides of protein X1 of SARS-CoV Urbani [3]: 0.6
Binding of serum 2 to looped/cyclic peptide (PEPSCAN-ELISA) [3]: 0.5
Binding of serum 6 to linear peptides of protein X1 of SARS-CoV Urbani [3]: 0.5
Binding of serum 6 to looped/cyclic peptide (PEPSCAN-ELISA) [3]: 0.4
Binding of serum 37 to linear peptides of protein X1 of SARS-CoV Urbani [3]: 0.7
Binding of serum 37 to looped/cyclic peptide (PEPSCAN-ELISA) [3]: 0.6
Binding of serum 62 to linear peptides of protein X1 of SARS-CoV Urbani [3]: 0.8
Binding of serum 62 to looped/cyclic peptide (PEPSCAN-ELISA) [3]: 0.7
Binding of serum London to linear peptides of protein X1 of SARS-CoV Urbani [3]: 0.3
Binding of serum London to looped/cyclic peptide (PEPSCAN-ELISA) [3]: 0.2
Binding of serum SARS-green to linear peptides of protein X1 of SARS-CoV Urbani [3]: 0.4
Binding of serum SARS-green to looped/cyclic peptide (PEPSCAN-ELISA) [3]: 0.4
Binding of serum SARS-yellow to linear peptides of protein X1 of SARS-CoV Urbani [3]: 0.4
Binding of serum SARS-yellow to looped/cyclic peptide (PEPSCAN-ELISA) [3]: 0.5

TIVVTEGDGISTPKL
Binding of a rabbit serum to linear peptides [1]: 0.1
Binding of a rabbit serum to looped peptides [1]: 0.5
Binding of Control Serum Blood-Bank to Looped peptides [2]: 0.6
Binding of Control serum Blood-bank to linear peptides [2]: 0.5
Binding of Control serum LUMC to linear peptides [2]: 0.5
Binding of Control serum LUMC to looped peptides [2]: 0.7
Binding of serum 1a to linear peptides of protein X1 of SARS-CoV Urbani [3]: 0.6
Binding of serum 1a to looped/cyclic peptides of protein X1 of SARS-CoV Urbani [3]: 0.7
Binding of serum 1b to linear peptides of protein X1 of SARS-CoV Urbani [3]: 0.5
Binding of serum 1b to looped/cyclic peptides of protein X1 of SARS-CoV Urbani [3]: 0.7
Binding of serum 2 to linear peptides of protein X1 of SARS-CoV Urbani [3]: 0.5
Binding of serum 2 to looped/cyclic peptides of protein X1 of SARS-CoV Urbani [3]: 0.5
Binding of serum 6 to linear peptides of protein X1 of SARS-CoV Urbani [3]: 0.6
Binding of serum 6 to looped/cyclic peptides of protein X1 of SARS-CoV Urbani [3]: 0.4
Binding of serum 37 to linear peptides of protein X1 of SARS-CoV Urbani [3]: 0.6
Binding of serum 37 to looped/cyclic peptides of protein X1 of SARS-CoV Urbani [3]: 0.7
Binding of serum 62 to linear peptides of protein X1 of SARS-CoV Urbani [3]: 0.5
Binding of serum 62 to looped/cyclic peptides of protein X1 of SARS-CoV Urbani [3]: 0.6
Binding of serum London to linear peptides of protein X1 of SARS-CoV Urbani [3]: 0.3
Binding of serum London to looped/cyclic peptides of protein X1 of SARS-CoV Urbani [3]: 0.2
Binding of serum SARS-green to linear peptides of protein X1 of SARS-CoV Urbani [3]: 0.3
Binding of serum SARS-green to looped/cyclic peptides of protein X1 of SARS-CoV Urbani [3]: 0.6
Binding of serum SARS-yellow to linear peptides of protein X1 of SARS-CoV Urbani [3]: 0.3
Binding of serum SARS-yellow to looped/cyclic peptides of protein X1 of SARS-CoV Urbani [3]: 0.5

TPNVTINCQDPAGGA
Rabbit serum linear peptides [1]: 0.0
Rabbit serum looped peptides [1]: 0.1
Binding of Control Serum Blood-Bank to Looped peptides [2]: 0.3
Binding of Control serum Blood-bank to linear peptides [2]: 0.6
Binding of Control serum LUMC to linear peptides [2]: 0.5
Binding of Control serum LUMC to looped peptides [2]: 0.2
Binding of serum 1a to linear peptides of protein X5 of SARS-CoV Urbani [3]: 0.8
Binding of serum 1a to looped/cyclic peptides of protein X5 of SARS-CoV Urbani [3]: 0.4
Binding of serum 1b to linear peptides of protein X5 of SARS-CoV Urbani [3]: 0.4
Binding of serum 2 to linear peptides of protein X5 of SARS-CoV Urbani [3]: 0.4
Binding of serum 2 to looped/cyclic peptides of protein X5 of SARS-CoV Urbani [3]: 0.3
Binding of serum 6 to linear peptides of protein X5 of SARS-CoV Urbani [3]: 0.1
Binding of serum 6 to looped/cyclic peptides of protein X5 of SARS-CoV Urbani [3]: 0.1
Binding of serum 37 to linear peptides of protein X5 of SARS-CoV Urbani [3]: 0.8
Binding of serum 37 to looped/cyclic peptides of protein X5 of SARS-CoV Urbani [3]: 0.4
Binding of serum 62 to linear peptides of protein X5 of SARS-CoV Urbani [3]: 0.5
Binding of serum 62 to looped/cyclic peptides of protein X5 of SARS-CoV Urbani [3]: 0.2
Binding of serum London to linear peptides of protein X5 of SARS-CoV Urbani [3]: 0.6
Binding of serum London to looped/cyclic peptides of protein X5 of SARS-CoV Urbani [3]: 0.1
Binding of serum SARS-green to linear peptides of protein X5 of SARS-CoV Urbani [3]: 0.4
Binding of serum SARS-green to looped/cyclic peptides of protein X5 of SARS-CoV Urbani [3]: 0.2
Binding of serum SARS-yellow to linear peptides of protein X5 of SARS-CoV Urbani [3]: 0.0
Binding of serum SARS-yellow to looped/cyclic peptides of protein X5 of SARS-CoV Urbani [3]: 0.2

TRGNTYSTAWLCALG
Rabbit serum linear peptides [1]: 0.7
Rabbit serum looped peptides [1]: 0.0
Binding of Control Serum Blood-Bank to Looped peptides [2]: 0.4
Binding of Control serum Blood-bank to linear peptides [2]: 0.7
Binding of Control serum LUMC to linear peptides [2]: 0.6
Binding of Control serum LUMC to looped peptides [2]: 0.6
Binding of serum 1a to linear peptides of protein X5 of SARS-CoV Urbani [3]: 0.8
Binding of serum 1a to looped/cyclic peptides of protein X5 of SARS-CoV Urbani [3]: 0.4
Binding of serum 1b to linear peptides of protein X5 of SARS-CoV Urbani [3]: 0.6
Binding of serum 1b to looped/cyclic peptides of protein X5 of SARS-CoV Urbani [3]: 0.1
Binding of serum 2 to linear peptides of protein X5 of SARS-CoV Urbani [3]: 0.6
Binding of serum 2 to looped/cyclic peptides of protein X5 of SARS-CoV Urbani [3]: 0.4
Binding of serum 6 to linear peptides of protein X5 of SARS-CoV Urbani [3]: 0.6
Binding of serum 6 to looped/cyclic peptides of protein X5 of SARS-CoV Urbani [3]: 0.3
Binding of serum 37 to linear peptides of protein X5 of SARS-CoV Urbani [3]: 0.8
Binding of serum 37 to looped/cyclic peptides of protein X5 of SARS-CoV Urbani [3]: 0.4
Binding of serum 62 to linear peptides of protein X5 of SARS-CoV Urbani [3]: 0.8
Binding of serum 62 to looped/cyclic peptides of protein X5 of SARS-CoV Urbani [3]: 0.6
Binding of serum London to linear peptides of protein X5 of SARS-CoV Urbani [3]: 0.7
Binding of serum London to looped/cyclic peptides of protein X5 of SARS-CoV Urbani [3]: 0.2
Binding of serum SARS-green to linear peptides of protein X5 of SARS-CoV Urbani [3]: 0.6
Binding of serum SARS-green to looped/cyclic peptides of protein X5 of SARS-CoV Urbani [3]: 0.3
Binding of serum SARS-yellow to linear peptides of protein X5 of SARS-CoV Urbani [3]: 0.5
Binding of serum SARS-yellow to looped/cyclic peptides of protein X5 of SARS-CoV Urbani [3]: 0.3

TRHTYQLRARSVSPK
Recognition of the peptide by the rabbit serum [1]: recognized
Binding of Control Serum Blood-Bank to Looped peptides [2]: 0.7
Binding of Control serum Blood-bank to linear peptides [2]: 0.9
Binding of Control serum LUMC to linear peptides [2]: 0.9
Binding of Control serum LUMC to looped peptides [2]: 0.7
Binding of serum 1a to linear peptides of protein X4 of SARS-CoV Urbani [3]: 0.8
Binding of serum 1a to looped/cyclic peptides of protein X4 of SARS-CoV Urbani [3]: 0.8
Binding of serum 1b to linear peptides of protein X4 of SARS-CoV Urbani [3]: 0.7
Binding of serum 1b to looped/cyclic peptides of protein X4 of SARS-CoV Urbani [3]: 0.4
Binding of serum 2 to linear peptides of protein X4 of SARS-CoV Urbani [3]: 0.7
Binding of serum 2 to looped/cyclic peptides of protein X4 of SARS-CoV Urbani [3]: 0.8
Binding of serum 6 to linear peptides of protein X4 of SARS-CoV Urbani [3]: 1.3
Binding of serum 6 to looped/cyclic peptides of protein X4 of SARS-CoV Urbani [3]: 0.9
Binding of serum 37 to linear peptides of protein X4 of SARS-CoV Urbani [3]: 1.0
Binding of serum 37 to looped/cyclic peptides of protein X4 of SARS-CoV Urbani [3]: 0.7
Binding of serum 62 to linear peptides of protein X4 of SARS-CoV Urbani [3]: 0.9
Binding of serum 62 to looped/cyclic peptides of protein X4 of SARS-CoV Urbani [3]: 0.6
Binding of serum London to linear peptides of protein X4 of SARS-CoV Urbani [3]: 0.8
Binding of serum London to looped/cyclic peptides of protein X4 of SARS-CoV Urbani [3]: 0.4
Binding of serum SARS-green to linear peptides of protein X4 of SARS-CoV Urbani [3]: 0.6
Binding of serum SARS-green to looped/cyclic peptides of protein X4 of SARS-CoV Urbani [3]: 0.7
Binding of serum SARS-yellow to linear peptides of protein X4 of SARS-CoV Urbani [3]: 0.9
Binding of serum SARS-yellow to looped/cyclic peptides of protein X4 of SARS-CoV Urbani [3]: 0.7
